According to patent US12594354B2, “Compositions for visualization of cleaning efficacy and product coverage” (priority 2011, dated 2026):
Where a name gives a salt, the structure may show the parent alone.

What was measured:
Format in all cases: physicochemical
[1] = Visible fluorescence under short (254 nm) and long (360 nm) ultraviolet light; conditions: in distilled water; visually in dark, 9 watt UV lamp at 6 inches
Description: All three tracer substances Riboflavin, Folic Acid and Quinine have unique molecular structures that enable them to mix into base solutions with varying polar and non polar charges. Studies by the authors of the current embodiment have also shown that the substances show an affinity for organic matter residue (e.g. proteins, fats, oils, soil, mineral deposits, etc.). Riboflavin (B2),Folic Acid (B9) and Quinine are approved food additives (Codex General Standard for Food Additives, Codex STAN 192; Code of Federal Regulations Title 21 Sec. 184.1695; Sec. 73.450; Sec. 104.20, Sec. 101.9 and Sec. 172.575). […] Experiments by the inventors have shown that when Riboflavin and Quinine are combined in solution the two GRAS or food additive fluorophores fluoresce synergistically under long and short wave ultraviolet light. [table]

[2] = Riboflavin fluorescence persistence in sanitizer and bleach base materials
Description: FIG. 3 is a flow chart showing how the GRAS or food additive composition is mixed with sanitizer(s) or cleaning chemical(s) for visualization of cleaning efficacy so those trained in the art can validate or verify the hygienic condition of equipment or environments after cleaning. The steps involved with making the combined fluorescent additive and base material invention solution include; (1) select the base material and the specific volume that will be used for the application. It is important to know the composition of the base material, its physical properties and establish a set volume. For purposes of this embodiment, base material can be potable water or any of the various sanitation chemicals that has been approved for use in the food, beverage, pharmaceutical, feed industry by appropriate regulatory authorities. The base material will be approximately 95% of the total end product. Potable tap water is an excellent base material for combining with the embodiment composition to produce a solution that can be applied to equipment at any stage of the cleaning process prior final rinse. Quat sanitizers, liquid soaps and detergents have also been shown by the authors to be excellent base materials. Riboflavin mixed easily into solution when 1,000 ppm was added to KayQuat II (>1,000 ppm quaternary ammonia). Fluorescence was intense from day one through day 270 and has not diminished at the time of this publication. Similar tests were performed on Ajax Liquid Soap with Bleach Alternative with similar results.
It should be noted that bench top studies with concentrate hypochlorite solutions have been shown by the authors to rapidly quench Riboflavin fluorescence. […] Highly alkaline ammonia base material produced similar results. The authors were concerned that chlorinated alkaline detergents and/or foaming cleaners would quench the fluorescence of the embodiment composition so tests were performed to determine the effect.

[3] = Detection sensitivity of tracers by UV fluorescence and spectrophotometer; conditions: for sensitivity of spectrophotometer absorption and transmission detection: tracers vs control samples
Description: One method of detecting the presence of the food grade vitamin tracer(s) is by exciting the mixture, treated area or sample swab with ultraviolet light so that the vitamins fluoresce. Riboflavin fluorescence is the identifier for visual observations. Folic Acid fluoresces, but not in the visible spectrum. The color of light is related to the wavelength or frequency of the light. Visible light—to which our eyes are most sensitive—falls in the wavelength range of about 400 to 750 nm. In the absence of visible light and when Riboflavin is excited by long-wave ultraviolet light (maximum lambda=˜365 nm-below the visible spectrum) Riboflavin emits/fluoresces light waves in the visible spectrum (˜450 to 650) which are very distinguishable in the dark when the only other light source is from long (˜365 nm) and midrange (˜312 nm) ultraviolet light. This phenomenon enables visible detection of Riboflavin at levels as low as 1 ppm. It is well know that different compounds have unique absorption and transmission spectra. Another method of quantifying the presence of the food grade vitamin tracers Riboflavin and Folic Acid is by use of a spectrophotometer whereby wavelength absorption and transmission results of known tracers Vs control samples provide characteristic spectra analysis that can be used to determine the absence or presence with sensitivity down to 1 ppm.

[4] = 2,500 ppm added to a 30% solution of chlorine bleach

Compound	Visual Fluorescence Long Wave (360 nm) [1]	Visual Fluorescence Short Wave (254 nm) [1]	Fluorescence from day one through day 270 ([2]; 1,000 ppm added to KayQuat II (>1,000 ppm quaternary ammonia))	fluorescence after 8 hours [2, 4]	fluorescence observed for up to 4 hours [2, 4]	visible detection level ([3]; excited by long (~365 nm) and midrange (~312 nm) UV in the dark)	sensitivity of spectrophotometer absorption and transmission detection [3]
Cc1cc2nc3c(=O)[nH]c(=O)nc-3n(C[C@H](O)[C@H](O)[C@H](O)CO)c2cc1C [50 ppm Riboflavin USP in distilled water, Riboflavin]	Moderate	Very Slight	–	–	–	–	–
Cc1cc2nc3c(=O)[nH]c(=O)nc-3n(C[C@H](O)[C@H](O)[C@H](O)CO)c2cc1C [Riboflavin]	–	–	intense	diminished completely	Slight	1 ppm	1 ppm
Nc1nc2ncc(CNc3ccc(C(=O)N[C@@H](CCC(=O)O)C(=O)O)cc3)nc2c(=O)[nH]1 [Folic Acid]	–	–	–	–	–	–	1 ppm
C=C[C@H]1C[N@@]2CC[C@H]1C[C@H]2[C@H](O)c1ccnc2ccc(OC)cc12 [Quinine Sulfate, Dihydrate]	Moderate	Slight	–	–	–	–	–
